{"source": "patent US20200077656A1", "about": "“Use of an Acyclic Picolinamide Compound as a Fungicide for Control of Phytopathogenic Fungi in Row Crops” (priority 2017, published 2020)", "assay_type_in_all_cases": "in vivo", "key": {"Cercospora arachidicola": {"tested_on": "Cercospora arachidicola", "assay": "Field assessment of Cercospora arachidicola (MYCOAR) in peanut", "details": "Table 8, early leaf spot of peanut, AUDPC based"}, "[1]": {"tested_on": "Blumeria graminis f. sp. hordei", "assay": "Greenhouse assessment of Blumeria graminis f. sp. hordei (ERYSGH) on barley", "details": "inoculated 1 day post application, barley seedlings", "experimental": "Greenhouse Assessment of Blumeria graminis f sp. hordei ([…]) on Barley: In greenhouse studies, technical grades of material were dissolved in acetone, which were then mixed with nine volumes of water containing 100 ppm of Triton X-100. The fungicide formulations were applied onto seedling plants using an automated booth sprayer to run off. All sprayed plants were allowed to dry prior to further handling. Test plants were inoculated with powdery mildew of barley 1-day post application. When disease symptoms were fully expressed on the untreated plants, infection levels were assessed on a scale of 0 to 100 percent disease severity. Percent disease control was calculated using the ratio of disease severity on treated plants relative to untreated plants."}, "[2]": {"tested_on": "Cercosporidium personatum", "assay": "Field assessment of Cercosporidium personatum (MYCOBE) in peanut", "details": "Table 9, late leaf spot of peanut, AUDPC based"}, "Ramularia collo-cygni": {"tested_on": "Ramularia collo-cygni", "assay": "Field assessment of Ramularia collo-cygni (RAMUCC) on barley", "details": "5% EC + Trycol adjuvant, winter barley", "experimental": "Field Assessment of Ramularia […]) on Barley: A fungicidal treatment containing a 5% EC formulation of compound I, tanked mixed with an adjuvant (Trycol, 50% w/w at 0.1% v/v), was sprayed on barley plants (winter barley; Cassia variety) at BBCH 33 growth stage of winter barley (5% infection on L5 at application), under natural infection of Ramularia leaf spot of barley. […] Disease severity was recorded as a percentage of visual diseased foliage on whole plot. Ramularia leaf spot of barley infection was assessed three times at 7, 14 and 21 days after the last application. The disease infection was recorded following EPPO PP1/26 guideline prescriptions. Area under the disease progress curve (AUDPC) was calculated for each plot using the sets of recorded severity data. Relative AUDPC (% control based on AUDPC) was calculated as percent of the nontreated control."}, "Pyrenophora teres": {"tested_on": "Pyrenophora teres", "assay": "Field assessment of Pyrenophora teres (PYRNTE) on barley, Trial 2 (natural infection)", "details": "EC + Trycol; for % Control (AUDPC) of PYRNTE, Trial 2: barley", "experimental": "Compound I was applied at a water volume of 200 L/ha under natural infection of Pyrenophora teres. Disease severity was recorded as a percentage of visual diseased foliage on whole plot. Net blotch of barley infection was assessed three times at 7, 14 and 21 days after the last application. The disease infection was recorded following EPPO PP1/26 guideline prescriptions. Area under the disease progress curve (AUDPC) was calculated for each plot using the sets of recorded severity data. Relative AUDPC (% control based on AUDPC) was calculated as percent of the nontreated control."}, "[3]": {"tested_on": "soybean (GLYMX, Glycine max)", "assay": "Yield of soybean in Cercospora sojina field trials", "details": "harvest at crop maturity"}, "[4]": {"tested_on": "peanut (ARHHY, Arachis hypogaea)", "assay": "Yield of peanut in Sclerotium rolfsii field trials", "details": "49 DAAD"}, "Magnaporthe grisea": {"tested_on": "Magnaporthe grisea", "details": "two applications, EC + Trycol adjuvant, rice"}, "[5]": {"details": "50 g/ha, Agnique BP420 200 mL/ha"}, "[6]": {"details": "75 g/ha, Agnique BP420 300 mL/ha"}, "[7]": {"details": "100 g/ha, Adsee C80W 80% 250 g/ha"}, "[8]": {"details": "100 g/ha, Agnique BP420 400 mL/ha"}, "[9]": {"details": "150 g/ha, Agnique BP420 600 mL/ha"}}, "note": "Read-outs that look alike come from different tables or passages of the source.", "data": [{"smiles": "COc1ccnc(C(=O)N[C@@H](C)C(=O)O[C@@H](C)C(c2ccc(F)cc2)c2ccc(F)cc2)c1OC(C)=O", "note": "[Compound I, (S)-1,1-bis(4-fluorophenyl)propan-2-yl (3-acetoxy-4-methoxypicolinoyl)-L-alaninate]", "values": [{"measurement": "Calc Percent Control of MYCOAR", "setting": "Cercospora arachidicola; [5]", "result": 31.5, "unit": "%"}, {"measurement": "Calc Percent Control of MYCOAR", "setting": "Cercospora arachidicola; 50 g/ha, MSO 100 g/ha", "result": 32.0, "unit": "%"}, {"measurement": "Calc Percent Control of MYCOAR", "setting": "Cercospora arachidicola; [6]", "result": 35.6, "unit": "%"}, {"measurement": "Calc Percent Control of MYCOAR", "setting": "Cercospora arachidicola; 75 g/ha, MSO 150 g/ha", "result": 36.3, "unit": "%"}, {"measurement": "Calc Percent Control of MYCOAR", "setting": "Cercospora arachidicola; [7]", "result": 40.3, "unit": "%"}, {"measurement": "Calc Percent Control of MYCOAR", "setting": "Cercospora arachidicola; [8]", "result": 44.8, "unit": "%"}, {"measurement": "Calc Percent Control of MYCOAR", "setting": "Cercospora arachidicola; 100 g/ha, MSO 200 g/ha", "result": 44.4, "unit": "%"}, {"measurement": "Calc Percent Control of MYCOAR", "setting": "Cercospora arachidicola; [9]", "result": 57.7, "unit": "%"}, {"measurement": "Calc Percent Control of MYCOAR", "setting": "Cercospora arachidicola; 150 g/ha, MSO 300 g/ha", "result": 52.3, "unit": "%"}, {"measurement": "% Control of ERYSGH (disease severity treated relative to untreated)", "setting": "[1]; 0.39 ppm", "result": "B (51-75)"}, {"measurement": "% Control of ERYSGH (disease severity treated relative to untreated)", "setting": "[1]; 1.56 ppm", "result": "A (76-100)"}, {"measurement": "% Control of ERYSGH (disease severity treated relative to untreated)", "setting": "[1]; 6.25 ppm", "result": "A (76-100)"}, {"measurement": "% Control of ERYSGH (disease severity treated relative to untreated)", "setting": "[1]; 25 ppm", "result": "A (76-100)"}, {"measurement": "% Control of ERYSGH (disease severity treated relative to untreated)", "setting": "[1]; 100 ppm", "result": "A (76-100)"}, {"measurement": "Calc Percent Control of MYCOBE", "setting": "[2]; [5]", "result": 28.5, "unit": "%"}, {"measurement": "Calc Percent Control of MYCOBE", "setting": "[2]; 50 g/ha, MSO 100 g/ha", "result": 24.0, "unit": "%"}, {"measurement": "Calc Percent Control of MYCOBE", "setting": "[2]; [6]", "result": 30.0, "unit": "%"}, {"measurement": "Calc Percent Control of MYCOBE", "setting": "[2]; 75 g/ha, MSO 150 g/ha", "result": 26.8, "unit": "%"}, {"measurement": "Calc Percent Control of MYCOBE", "setting": "[2]; [7]", "result": 26.9, "unit": "%"}, {"measurement": "Calc Percent Control of MYCOBE", "setting": "[2]; [8]", "result": 36.0, "unit": "%"}, {"measurement": "Calc Percent Control of MYCOBE", "setting": "[2]; 100 g/ha, MSO 200 g/ha", "result": 29.0, "unit": "%"}, {"measurement": "Calc Percent Control of MYCOBE", "setting": "[2]; [9]", "result": 44.7, "unit": "%"}, {"measurement": "Calc Percent Control of MYCOBE", "setting": "[2]; 150 g/ha, MSO 300 g/ha", "result": 38.5, "unit": "%"}, {"measurement": "Disease control of RAMUCC, percent control based on AUDPC", "setting": "Ramularia collo-cygni; 75 g ai/ha", "result": "C (26-50)"}, {"measurement": "Disease control of RAMUCC, percent control based on AUDPC", "setting": "Ramularia collo-cygni; 100 g ai/ha", "result": "C (26-50)"}, {"measurement": "Disease control of RAMUCC, percent control based on AUDPC", "setting": "Ramularia collo-cygni; 150 g ai/ha", "result": "B (51-75)"}, {"measurement": "% Control (AUDPC) of PYRNTE, Trial 2", "setting": "Pyrenophora teres; 50 g ai/ha", "result": "B (51-75)"}, {"measurement": "% Control (AUDPC) of PYRNTE, Trial 2", "setting": "Pyrenophora teres; 100 g ai/ha", "result": "B (51-75)"}, {"measurement": "% Control (AUDPC) of PYRNTE, Trial 2", "setting": "Pyrenophora teres; 150 g ai/ha", "result": "B (51-75)"}, {"measurement": "control of Pyrenophora teres on barley (in words)", "setting": "Pyrenophora teres; replicated field trial, 50, 100 and 150 g ai/ha, natural infection", "result": "useful levels of control"}, {"measurement": "GLXMA Yield Percent of Untreated", "setting": "[3]; [5]", "result": 117.0, "unit": "%"}, {"measurement": "GLXMA Yield Percent of Untreated", "setting": "[3]; 50 g/ha, MSO 100 g/ha", "result": 108.0, "unit": "%"}, {"measurement": "GLXMA Yield Percent of Untreated", "setting": "[3]; [6]", "result": 119.2, "unit": "%"}, {"measurement": "GLXMA Yield Percent of Untreated", "setting": "[3]; 75 g/ha, MSO 150 g/ha", "result": 114.6, "unit": "%"}, {"measurement": "GLXMA Yield Percent of Untreated", "setting": "[3]; [7]", "result": 115.3, "unit": "%"}, {"measurement": "GLXMA Yield Percent of Untreated", "setting": "[3]; [8]", "result": 117.6, "unit": "%"}, {"measurement": "GLXMA Yield Percent of Untreated", "setting": "[3]; 100 g/ha, MSO 200 g/ha", "result": 113.4, "unit": "%"}, {"measurement": "GLXMA Yield Percent of Untreated", "setting": "[3]; [9]", "result": 114.8, "unit": "%"}, {"measurement": "GLXMA Yield Percent of Untreated", "setting": "[3]; 150 g/ha, MSO 300 g/ha", "result": 112.9, "unit": "%"}, {"measurement": "ARHHY Yield Percent of Untreated", "setting": "[4]; [5]", "result": 96.4, "unit": "%"}, {"measurement": "ARHHY Yield Percent of Untreated", "setting": "[4]; 50 g/ha, MSO 100 g/ha", "result": 104.9, "unit": "%"}, {"measurement": "ARHHY Yield Percent of Untreated", "setting": "[4]; [6]", "result": 113.9, "unit": "%"}, {"measurement": "ARHHY Yield Percent of Untreated", "setting": "[4]; 75 g/ha, MSO 150 g/ha", "result": 112.8, "unit": "%"}, {"measurement": "ARHHY Yield Percent of Untreated", "setting": "[4]; [7]", "result": 122.0, "unit": "%"}, {"measurement": "ARHHY Yield Percent of Untreated", "setting": "[4]; [8]", "result": 118.0, "unit": "%"}, {"measurement": "ARHHY Yield Percent of Untreated", "setting": "[4]; 100 g/ha, MSO 200 g/ha", "result": 115.7, "unit": "%"}, {"measurement": "ARHHY Yield Percent of Untreated", "setting": "[4]; [9]", "result": 130.0, "unit": "%"}, {"measurement": "ARHHY Yield Percent of Untreated", "setting": "[4]; 150 g/ha, MSO 300 g/ha", "result": 131.5, "unit": "%"}, {"measurement": "Disease control of PYRIOR, percent control based on AUDPC", "setting": "Magnaporthe grisea; 50 g ai/ha", "result": "C (26-50)"}, {"measurement": "Disease control of PYRIOR, percent control based on AUDPC", "setting": "Magnaporthe grisea; 100 g ai/ha", "result": "C (26-50)"}, {"measurement": "Disease control of PYRIOR, percent control based on AUDPC", "setting": "Magnaporthe grisea; 150 g ai/ha", "result": "B (51-75)"}, {"measurement": "Disease control of PYRIOR, percent control based on AUDPC", "setting": "Magnaporthe grisea; 200 g ai/ha", "result": "B (51-75)"}]}]}
